Entries after “also recorded” stand apart in the source; their conditions may differ.
What was measured:
CREB/ATF1 = experiment: Immunoblot analysis of CREB/ATF1 phosphorylation in ASM cells; assay type: cell-based, human; settings: PGE2 100 nM; isoproterenol 10 μM
Excerpt: (§1) Detection of PDE4D5 mRNA transcripts: Total RNA was extracted from the cultured ASM cells using the TRIzol method (Invitrogen), and cDNAs were isolated by RT-PCR using the SuperScript First Strand Synthesis System kit from Invitrogen, with the following oligonucleotide primer sets (Integrated DNA Technologies): for PDE4D5, 5′-[…]-3′ (forward; SEQ ID NO: 2) and 5′-[…]-3′ (reverse; SEQ ID NO: 3); and for β-actin, 5′-[…]-3′ (forward; SEQ ID NO: 4) and 5′-[…]-3′ (reverse; SEQ ID NO: 5). The reaction volume was 20 μl and cycling conditions used were 35 cycles of 30 sec denaturation at 95° C., followed by 30 sec annealing at 60° C. and elongation at 72° C. for 30 sec. Ex-Tag (Takara Biotechnology) was used as DNA polymerase. […] Following protein extraction and the addition of gel-loading buffer, the extracts were loaded on a 10% SDS-PAGE gel for immunoblotting after transfer to a PVDF membrane. The membranes were then incubated overnight with monoclonal mouse anti-human primary antibodies directed against phospho-CREB and -ATF1, phospho-ERK1/2, or α-actin, and levels were detected by ECL after a 1-hr incubation with a 1:2,000 dilution of HRP-conjugated rabbit anti-mouse secondary antibody, followed by exposure to autoradiography film. The protein band intensities were quantified by densitometry. siRNA-mediated knockdown of PKA: ASM cells were seeded into 6-well plates and, at ˜40% confluency, the medium was replaced with the reduced serum-containing medium, Opti-MEM (Invitrogen). The cells were then transfected twice during a 24-hr interval with two pools of three siRNA duplexes, each pool targeted against the human PKAα or PKAγ catalytic subunits (Santa Cruz Biotechnology; sc-36240 and sc-36236, respectively), or with a non-targeted control (scrambled) siRNA duplex, using Oligofectamine (Invitrogen) as the transfection agent. The pools of siRNAs were applied to each well at a final concentration of 100 nM for each siRNA preparation. […] Transfection of ASM cells with adeno-βARK-ct: Adenovirus (adeno)-βARK-ct, an adenovirus vector encoding the βARK1 carboxyl-terminal domain which blocks Gβγ signaling (25,26), and adeno-β-gal, an adenovirus vector expressing lacZ as a negative control, were constructed using the AdenoX adenovirus construction kit (BD-Clontech). Recombinant plaques were isolated and propagated in HEK293 cells (Invitrogen), with viral purification using the cesium chloride gradient method, and viral titer detected by plaque assay. The ASM cells were transfected with either of the adenoviral vectors at a multiplicity of infection (MOI) of 100, and experiments were conducted at 24 hr following adenoviral tranfections. Pharmacodynamic studies of constrictor and relaxation responsiveness in rabbit ASM tissues: Following initial sedation and subsequent general anesthesia with intramuscular injections of xylazine (10 mg/kg) and ketamine (50 mg/kg), respectively, rabbits were sacrificed with an intravenously administered overdose of sodium pentobarbital (100 mg/kg). As described previously (16), the tracheae were excised via open thoracotomy, the loose connective tissue and epithelium were scraped and removed, and the tracheae were divided into 8 ring segments, each of 6-8 mm in length. […] After these incubations, the tissues were placed in organ baths containing modified Krebs-Ringer solution aerated with 5% CO2 in oxygen (pH of 7.35-7.40), and attached to force transducers to continuously monitor isometric tension. […] The constrictor and relaxation dose-response curves were analyzed with respect to each tissue's maximal isometric contractile force (Tmax) to ACh and maximal relaxation response (Rmax) to isoproterenol from the initial level of active cholinergic contraction. Statistical analyses: Results are expressed as mean±SE values. Comparisons between groups were made using the Student's t-test (two-tailed) or ANOVA with Tukey's post-test analysis, where appropriate.

rabbit ASM tissues [1] = experiment: Constrictor responsiveness to acetylcholine (ACh) in isolated rabbit ASM tissues, isometric tension in organ bath; settings: tissues exposed 24 hr to the agent
Excerpt: as §1

human ASM cells [2] = experiment: Assay of cAMP accumulation in cultured human ASM cells; assay type: cell-based; settings: isoproterenol 1.0 μM, 5 min; PGE2 100 nM or salmeterol 10 μM x 24 hr; no rolipram
Excerpt: Animals: Adult New Zealand White rabbits were used in this study, which was approved by the Biosafety and Animal Research Committee of the Joseph Stokes Research Institute at Children's Hospital of Philadelphia. The animals had no signs of respiratory disease for several weeks before the study, and their care and use were in accordance with the “Guide for the Care and Use of Laboratory Animals” prepared by the Institute of Laboratory Animal Resources, National Research Council. Culture and treatment of ASM cells: The human ASM cells were grown in SmBm media supplemented with 10% FBS (BioWhittaker) and maintained throughout in a humidified incubator containing 5% CO2 in air at 37° C. The experimental protocols involved growing the cells to ˜95% confluence in the above medium. […] Assay of cAMP accumulation: In initial studies, intracellular cAMP levels were determined in near confluent ASM cell cultures at varying times following treatment of ASM cells with varying concentrations of isoproterenol (0.1 to 100 μM). […]
Thereafter, in the continued presence of these treatments, cells were exposed for 5 min to isoproterenol (10 μM) at 37° C., and intracellular cAMP concentrations were determined per manufacturer's protocols using a direct cAMP Enzyme Immunoassay Kit (R&D Systems, Minneapolis, Minn.). In both cases, the cAMP measurements were expressed in units of picomoles/milligram protein.

PDE4D5 mRNA = experiment: Detection of PDE4D5 mRNA transcripts by RT-PCR in ASM cells; assay type: cell-based, human; settings: PGE2 100 nM, salmeterol or isoproterenol 10 μM; for peak PDE4D5 mRNA expression, fold above unstimulated cells: densitometric analysis, 3 experiments
Excerpt: as §1

human ASM cells [3] = experiment: Assay of cAMP PDE activity in ASM cell lysates; assay type: cell-based; settings: for cAMP PDE (PDE4) activity relative to vehicle-treated control cells: cells exposed 24 hr to the agent; for PDE activity, fold above control: cells incubated 24 hr with the agent (PGE2 or forskolin 100 μM; salmeterol or isoproterenol 10 μM)
Experimental: Assay of cAMP PDE activity: Levels of cAMP PDE activity were assayed in ASM cell lysates using a colorimetric, non-radioactive enzymatic assay kit from Biomol, as per the manufacture's protocol. PDE activity was determined following exposure of ASM cells for 24 hr to either vehicle alone (control), PGE2 (100 μM), or forskolin (100 μM) in the absence and presence of pretreatment with rolipram (10 μM), cycloheximide (100 μM), actinomycin D (4 μM), or H89 (10 μM).
In each case, the measured levels of PDE activity were standardized to the protein content in the cell extracts.

ERK1/2 = experiment: Immunoblot analysis of ERK1/2 phosphorylation in ASM cells; assay type: cell-based, human; settings: for time of peak ERK1/2 phosphorylation: PGE2 100 nM; for time of peak ERK1/2 phosphorylation / ERK1/2 phosphorylation in cells treated with the agent: isoproterenol or salmeterol 10 μM; for ERK1/2 phosphorylation in cells treated with the agent: PGE2 or forskolin 100 nM
Excerpt: as §1

rabbit ASM tissues [4] = experiment: Relaxation responsiveness to isoproterenol in isolated rabbit ASM tissues half-maximally contracted with ACh; settings: for maximal relaxation (Rmax) response to isoproterenol: mean±SE, tissues exposed 24 hr to the agent (PGE2 100 nM; salmeterol 10 μM); for relaxation responsiveness to isoproterenol relative to vehicle-treated controls: tissues exposed 24 hr to the agent
Excerpt: as §1

OCc1cc(C(O)CNCCCCCCOCCCCc2ccccc2)ccc1O (stereo not drawn) [salmeterol]
phosphorylation of CREB and ATF1 in cells treated with the agent (CREB/ATF1): Qualitatively similar temporal changes
constrictor responsiveness to ACh relative to vehicle-treated controls (rabbit ASM tissues [1]): significantly increased constrictor responses
isoproterenol-induced cAMP accumulation after 24 hr exposure to the agent (human ASM cells [2]): significantly reduced cAMP responses; also recorded: markedly attenuated
time of peak PDE4D5 mRNA induction (PDE4D5 mRNA): 6 h
peak PDE4D5 mRNA expression, fold above unstimulated cells (PDE4D5 mRNA): 7.3 fold
cAMP PDE (PDE4) activity relative to vehicle-treated control cells (human ASM cells [3]): significantly increased
PDE activity, fold above control (human ASM cells [3]): ~2 fold
time of peak ERK1/2 phosphorylation (ERK1/2): 20 min
ERK1/2 phosphorylation in cells treated with the agent (ERK1/2): increased phosphorylation of ERK1/2; also recorded: enhanced ERK1/2 phosphorylation
maximal relaxation (Rmax) response to isoproterenol (rabbit ASM tissues [4]): 33.39±5.1%
relaxation responsiveness to isoproterenol relative to vehicle-treated controls (rabbit ASM tissues [4]): impaired relaxation responses

CCCCC[C@H](O)/C=C/[C@H]1[C@H](O)CC(=O)[C@@H]1C/C=C\CCCC(=O)O [PGE2, prostaglandin (PG)E2]
phosphorylation of CREB and ATF1 in cells treated with the agent (CREB/ATF1): transiently increased phosphorylation; also recorded: transiently upregulated expression
time of peak CREB/ATF1 phosphorylation (CREB/ATF1): 30 min
constrictor responsiveness to ACh relative to vehicle-treated controls (rabbit ASM tissues [1]): significantly increased constrictor responses; also recorded: increased constrictor responsiveness
isoproterenol-induced cAMP accumulation after 24 hr exposure to the agent (human ASM cells [2]): significantly reduced cAMP responses; also recorded: significantly attenuated
time of peak PDE4D5 mRNA induction (PDE4D5 mRNA): 6 h
peak PDE4D5 mRNA expression, fold above unstimulated cells (PDE4D5 mRNA): 5.9 fold
cAMP PDE (PDE4) activity relative to vehicle-treated control cells (human ASM cells [3]): significantly increased; also recorded: significant increase
PDE activity, fold above control (human ASM cells [3]): 3.74 fold
time of peak ERK1/2 phosphorylation (ERK1/2): 30 min
ERK1/2 phosphorylation in cells treated with the agent (ERK1/2): increased expression of phosphorylated ERK1/2; also recorded: significantly increased
increase in ERK1/2 phosphorylation, fold above control (vehicle-treated) cells (ERK1/2; densitometric ratios, mean±SE, PGE2 30 min, isoproterenol 20 min): 3.76±0.64 fold
maximal relaxation (Rmax) response to isoproterenol (rabbit ASM tissues [4]): 31.4±5.4%
relaxation responsiveness to isoproterenol relative to vehicle-treated controls (rabbit ASM tissues [4]): impaired relaxation responses; also recorded: impaired ASM relaxation

— patent US8569229B2, “Compositions and methods which modulate G-protein signaling for the treatment of inflammatory disorders such as asthma and allergic conjunctivitis” (The Children's Hospital of Philadelphia, priority 2008, dated 2013)
